Laboratory results as given in US20250213555A1, “SUBSTITUTED TETRAHYDROFURAN ANALOGS AS MODULATORS OF SODIUM CHANNELS” (VERTEX PHARMACEUTICALS INCORPORATED, priority 2021, published 2025).

Molecular target: human Nav 1.8 (Homo sapiens, UniProt Q9Y5Y9)
Assay: E-VIPR assay detecting and measuring Nav inhibition properties
Format: cell-based
Settings: HEK cells expressing a truncated form of human Nav 1.8; compound numbers without "*" (not marked as run in the presence of human serum); read-out: measured IC50 value in the E-VIPR Assay
From the text: E-VIPR Assay Detecting and Measuring Nav Inhibition Properties
Sodium ion channels are voltage-dependent proteins that can be activated by inducing membrane voltage changes by applying electric fields. The electrical stimulation instrument and methods of use, referred to as E-VIPR, are described in International Publication No. WO 2002/008748 A3 and C.-J. Huang et al. Characterization of voltage-gated sodium channel blockers by electrical stimulation and fluorescence detection of membrane potential, 24 Nature Biotech. 439-46 (2006), both of which are incorporated by reference in their entirety. The instrument comprises a microtiter plate handler, an optical system for exciting the coumarin dye while simultaneously recording the coumarin and oxonol emissions, a waveform generator, a current- or voltage-controlled amplifier, and parallel electrode pairs that are inserted into assay plate wells. Under integrated computer control, this instrument passes user-programmed electrical stimulus protocols to cells within the wells of the microtiter plate.
16-20 hours prior to running the assay on E-VIPR, HEK cells expressing a truncated form of human Nav 1.8 with full channel activity were seeded into microtiter 384-well plates, pre-coated with matrigel, at a density of 25,000 cells per well. 2.5-5% KIR2.1 Bacmam virus was added to the final cell suspension before seeding into cell plates. HEK cells were grown in Dulbecco's Modified Eagle's Medium (DMEM) supplemented with 10% FBS (Fetal Bovine Serum, qualified; Sigma #F4135), 1% NEAA (Non-Essential Amino Acids, Gibco #11140), 1% HEPES (Gibco #15630), 1% Pen-Strep (Penicillin-Streptomycin; Gibco #15140) and 5 μg/ml Blasticidin (Gibco #R^210-01). Cells were expanded in vented cap cell culture flasks, with 90-95% humidity and 5% CO2.
100 mg/mL Pluronic F-127 (Sigma #P2443), in dry DMSO
Compound Plates: Corning 384-well Polypropylene Round Bottom #3656
Cell Plates: 384-well tissue culture treated plates (Greiner #781091-2B)
2.5-5% KIR 2.1 Bacmam virus (produced in-house), prepared as described in Section 3.3 of J. A. Fornwald et al., Gene Expression in Mammalian Cells Using BacMam, a Modified Baculovirus System, 1350 Methods in Molecular Biology 95-116 (2016), the entire contents of which are incorporated by reference. The concentration used can be dependent on viral titer of each batch.
5 mM DiSBAC6(3), a voltage sensitive oxonol acceptor (CAS number 169211-44-3; 5-[3-(1,3-dihexylhexahydro-4,6-dioxo-2-thioxo-5-pyrimidinyl)-2-propen-1-ylidene]-1,3-dihexyldihydro-2-thioxo-4,6 (1H,5H)-pyrimidinedione), in dry DMSO. The preparation of DiSBAC6(3) is analogous to that of DiSBAC4(3) as described in Voltage Sensing by Fluorescence Resonance Energy Transfer in Single Cells, Gonzalez, J. E. and Tsien, R. Y. (1995) Biophys. J. 69, 1272-1280.
5 mM CC2-DMPE, a commercially available membrane-bound coumarin phospholipid FRET donor (ThermoFisher Scientific catalog number K1017, CAS number 393782-57-5; tetradecanoic acid, 1,1′-[(1R)-1-[8-(6-chloro-7-hydroxy-2-oxo-2H-1-benzopyran-3-yl)-3-hydroxy-3-oxido-8-oxo-2,4-dioxa-7-aza-3-phosphaoct-1-yl]-1,2-ethanediyl] ester) was prepared in dry DMSO. See also, Improved indicators of cell membrane potential that use fluorescence resonance energy transfer, Gonzalez, J. E. and Tsien, R. Y. (1997) Chem. Biol. 4, 269-277.
Voltage Assay Background Suppression Compound (VABSC-1) is prepared in H2O (89-363 mM, range used to maintain solubility)
Human Serum (HS, Millipore #S1P1-01KL, or Sigma SLBR5469V and SLBR5470V as a 50%/50% mixture, for 25% assay final concentration)
• Sodium Chloride 160 mM (9.35 g/L), Potassium Chloride, 4.5 mM (0.335 g/L), Glucose 10 mM (1.8 g/L), Magnesium Chloride (Anhydrous) 1 mM (0.095 g/L), Calcium Chloride 2 mM (0.222 g/L), HEPES 10 mM (2.38 g/L) in water. […]

Chain of human Nav 1.8 (Q9Y5Y9 126-399 limits assumed): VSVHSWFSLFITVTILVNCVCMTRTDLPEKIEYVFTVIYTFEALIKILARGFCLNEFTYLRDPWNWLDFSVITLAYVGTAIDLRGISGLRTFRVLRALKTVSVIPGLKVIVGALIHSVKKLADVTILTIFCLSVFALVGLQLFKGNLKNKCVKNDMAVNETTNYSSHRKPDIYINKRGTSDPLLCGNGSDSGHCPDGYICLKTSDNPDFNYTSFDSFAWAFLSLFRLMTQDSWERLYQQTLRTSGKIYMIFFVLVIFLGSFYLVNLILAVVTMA
Chain of human Nav 1.8 (Q9Y5Y9 660-890 limits assumed): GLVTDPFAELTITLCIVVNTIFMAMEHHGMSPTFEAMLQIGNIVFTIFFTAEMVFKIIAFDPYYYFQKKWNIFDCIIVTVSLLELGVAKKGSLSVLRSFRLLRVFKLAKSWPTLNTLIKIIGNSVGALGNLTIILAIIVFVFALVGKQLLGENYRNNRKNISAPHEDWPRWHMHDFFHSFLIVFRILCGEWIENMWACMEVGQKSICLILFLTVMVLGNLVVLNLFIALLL
Chain of human Nav 1.8 (Q9Y5Y9 1148-1722 limits assumed): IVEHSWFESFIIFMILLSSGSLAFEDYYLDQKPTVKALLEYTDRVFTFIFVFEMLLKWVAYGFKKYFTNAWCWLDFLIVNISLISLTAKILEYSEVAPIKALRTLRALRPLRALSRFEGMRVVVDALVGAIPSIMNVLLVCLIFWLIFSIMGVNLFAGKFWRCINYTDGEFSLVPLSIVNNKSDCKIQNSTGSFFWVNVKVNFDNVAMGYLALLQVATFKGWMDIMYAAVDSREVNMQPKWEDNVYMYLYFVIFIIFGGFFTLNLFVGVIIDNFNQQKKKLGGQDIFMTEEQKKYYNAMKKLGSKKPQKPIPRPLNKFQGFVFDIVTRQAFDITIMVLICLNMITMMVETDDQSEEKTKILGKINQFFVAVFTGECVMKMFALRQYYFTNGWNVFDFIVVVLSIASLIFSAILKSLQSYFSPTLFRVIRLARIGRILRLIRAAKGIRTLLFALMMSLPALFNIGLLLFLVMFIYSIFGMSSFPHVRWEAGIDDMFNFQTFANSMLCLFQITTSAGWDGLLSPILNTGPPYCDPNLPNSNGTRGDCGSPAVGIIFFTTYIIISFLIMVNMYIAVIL

| Structure (SMILES) | IC50 |
| --- | --- |
| COc1c([C@H]2[C@H](C(=O)Nc3ccnc(C(=O)N4CCC(N(C)C)C4)c3)O[C@@](C)(C(F)(F)F)[C@H]2C)ccc(F)c1F (single isomer, unassigned) [Compound 264, rel-(2R*,3S*,4S*,5R*)-3-(3,4-difluoro-2-methoxyphenyl)-N-(2-(3-(dimethylamino)pyrrolidine-1-carbonyl)pyridin-4-yl)-4,5-dimethyl-5-(trifluoromethyl)tetrahydrofuran-2-carboxamide] | < 10 nM |
| COc1c(C2C(C(=O)Nc3ccnc(C(=O)N4CCC(N(C)C)C4)c3)OC(C)(C(F)(F)F)C2C)ccc(F)c1F (single isomer, unassigned) [Compound 265, rel-(2R*,3S,*4S*,5R*)-3-(3,4-difluoro-2-methoxyphenyl)-N-(2-(3-(dimethylamino)pyrrolidine-1-carbonyl)pyridin-4-yl)-4,5-dimethyl-5-(trifluoromethyl)tetrahydrofuran-2-carboxamide] | < 10 nM |
| COc1c([C@H]2[C@H](C(=O)Nc3ccnc(C(=O)N4CCN(C)[C@H]5C[C@H]54)c3)O[C@@](C)(C(F)(F)F)[C@H]2C)ccc(F)c1F (single isomer, unassigned) [Compound 294, rel-(2R*,3S*,4S*,5R*)-3-(3,4-difluoro-2-methoxyphenyl)-4,5-dimethyl-N-(2-((1R,6S)-5-methyl-2,5-diazabicyclo[4.1.0]heptane-2-carbonyl)pyridin-4-yl)-5-(trifluoromethyl)tetrahydrofuran-2-carboxamide] | < 10 nM |
| COc1c([C@H]2[C@H](C(=O)Nc3ccnc(C(=O)N4CCN(C)[C@@H]5C[C@@H]54)c3)O[C@@](C)(C(F)(F)F)[C@H]2C)ccc(F)c1F (single isomer, unassigned) [Compound 295, rel-(2R*,3S*,4S*,5R*)-3-(3,4-difluoro-2-methoxyphenyl)-4,5-dimethyl-N-(2-((1S,6R)-5-methyl-2,5-diazabicyclo[4.1.0]heptane-2-carbonyl)pyridin-4-yl)-5-(trifluoromethyl)tetrahydrofuran-2-carboxamide] | < 10 nM |
| COCCOc1c([C@@H]2[C@@H](C(=O)Nc3ccnc(C(N)=O)c3)O[C@](C)(C(F)(F)F)[C@@H]2C)ccc(F)c1F (stereo in doubt) [Compound 1, rel-4-((2S,3R,4R,5S)-3-(3,4-difluoro-2-(2-methoxyethoxy)phenyl)-4,5-dimethyl-5-(trifluoromethyl)tetrahydrofuran-2-carboxamido) picolinamide] | 100 to 1000 nM |
| C[C@]1(C(F)(F)F)C[C@@H](c2ccc(OC(F)(F)F)cc2Cl)[C@H](C(=O)Nc2ccnc(C(N)=O)c2)O1 (stereo in doubt) [Compound 151, rel-4-((2R,3S,5R)-3-(2-chloro-4-(trifluoromethoxy)phenyl)-5-methyl-5-(trifluoromethyl)tetrahydrofuran-2-carboxamido) picolinamide] | 10 to 100 nM |
| C[C@H]1[C@@H](c2ccc(F)c(F)c2OCCO)[C@H](C(=O)Nc2ccnc(C(N)=O)c2)O[C@@]1(C)C(F)(F)F [Compound 5, 4-((2R,3S,4S,5R)-3-(3,4-difluoro-2-(2-hydroxyethoxy)phenyl)-4,5-dimethyl-5-(trifluoromethyl)tetrahydrofuran-2-carboxamido) picolinamide] | < 10 nM |
| C[C@H]1[C@@H](c2ccc(F)c(F)c2OCc2cnco2)[C@H](C(=O)Nc2ccnc(C(N)=O)c2)O[C@@]1(C)C(F)(F)F [Compound 6] | < 10 nM |
| C[C@H]1[C@@H](c2ccc(F)c(F)c2OC[C@H]2C[C@](O)(C(F)(F)F)C2)[C@H](C(=O)Nc2ccnc(C(N)=O)c2)O[C@@]1(C)C(F)(F)F [Compound 7, 4-((2R,3S,4S,5R)-3-(3,4-difluoro-2-(((1s,3R)-3-hydroxy-3-(trifluoromethyl)cyclobutyl)methoxy)phenyl)-4,5-dimethyl-5-(trifluoromethyl)tetrahydrofuran-2-carboxamido)picolinamide] | 10 to 100 nM |

Second part, the compound after the results:

| IC50 | Structure (SMILES) |
| --- | --- |
| < 10 nM | COc1c([C@H]2[C@H](C(=O)Nc3ccnc(C(=O)N4CCN(C)CC4)c3)O[C@@](C)(C(F)(F)F)[C@H]2C)ccc(F)c1F [Compound 8, (2R,3S,4S,5R)-3-(3,4-difluoro-2-methoxy-phenyl)-4,5-dimethyl-N-[2-(4-methylpiperazine-1-carbonyl)-4-pyridyl]-5-(trifluoromethyl)tetrahydrofuran-2-carboxamide] |
| < 10 nM | COc1c([C@H]2[C@H](C(=O)Nc3cc(C(=O)N4CCN(C)CC4)ncc3F)O[C@@](C)(C(F)(F)F)[C@H]2C)ccc(F)c1F [Compound 9, (2R,3S,4S,5R)-3-(3,4-difluoro-2-methoxyphenyl)-N-(5-fluoro-2-(4-methylpiperazine-1-carbonyl)pyridin-4-yl)-4,5-dimethyl-5-(trifluoromethyl)tetrahydrofuran-2-carboxamide] |
| 100 to 1000 nM | COc1c([C@H]2[C@H](C(=O)Nc3cccc(C(=O)N4CCN(C)CC4)n3)O[C@@](C)(C(F)(F)F)[C@H]2C)ccc(F)c1F [Compound 10, (2R,3S,4S,5R)-3-(3,4-difluoro-2-methoxyphenyl)-4,5-dimethyl-N-(6-(4-methylpiperazine-1-carbonyl)pyridin-2-yl)-5-(trifluoromethyl)tetrahydrofuran-2-carboxamide] |
| 10 to 100 nM | COc1c([C@H]2[C@H](C(=O)Nc3ccnc(C(=O)N4CCN(C)CC4)n3)O[C@@](C)(C(F)(F)F)[C@H]2C)ccc(F)c1F [Compound 11, (2R,3S,4S,5R)-3-(3,4-difluoro-2-methoxyphenyl)-4,5-dimethyl-N-(2-(4-methylpiperazine-1-carbonyl)pyrimidin-4-yl)-5-(trifluoromethyl)tetrahydrofuran-2-carboxamide] |
| 10 to 100 nM | COc1c([C@H]2[C@H](C(=O)Nc3cc(C(=O)N4CCN(C)CC4)ncc3C)O[C@@](C)(C(F)(F)F)[C@H]2C)ccc(F)c1F [Compound 12, (2R,3S,4S,5R)-3-(3,4-difluoro-2-methoxyphenyl)-4,5-dimethyl-N-(5-methyl-2-(4-methylpiperazine-1-carbonyl)pyridin-4-yl)-5-(trifluoromethyl)tetrahydrofuran-2-carboxamide] |
| 100 to 1000 nM | COc1c([C@H]2[C@H](C(=O)Nc3nccc(C(=O)N4CCN(C)CC4)n3)O[C@@](C)(C(F)(F)F)[C@H]2C)ccc(F)c1F [Compound 13, (2R,3S,4S,5R)-3-(3,4-difluoro-2-methoxyphenyl)-4,5-dimethyl-N-(4-(4-methylpiperazine-1-carbonyl)pyrimidin-2-yl)-5-(trifluoromethyl)tetrahydrofuran-2-carboxamide] |
| 100 to 1000 nM | COc1c([C@H]2[C@H](C(=O)Nc3cc(C(=O)N4CCN(C)CC4)ccn3)O[C@@](C)(C(F)(F)F)[C@H]2C)ccc(F)c1F [Compound 14, (2R,3S,4S,5R)-3-(3,4-difluoro-2-methoxyphenyl)-4,5-dimethyl-N-(4-(4-methylpiperazine-1-carbonyl)pyridin-2-yl)-5-(trifluoromethyl)tetrahydrofuran-2-carboxamide] |
| < 10 nM | COc1c([C@H]2[C@H](C(=O)Nc3cc(C(=O)N4CCNCC4)ncc3C)O[C@@](C)(C(F)(F)F)[C@H]2C)ccc(F)c1F [Compound 15, (2R,3S,4S,5R)-3-(3,4-difluoro-2-methoxy-phenyl)-4,5-dimethyl-N-[5-methyl-2-(piperazine-1-carbonyl)-4-pyridyl]-5-(trifluoromethyl)tetrahydrofuran-2-carboxamide] |
